Molecules are shown by their SMILES. Where only a bound is given, the exact number is not on record here.

The record followed here is patent publication US20140275280A1 (COYOTE PHARMACEUTICALS, INC., priority 2013, published 2014).

A short description of data set [1]: Pharmacological activity of GGA isomers (data of the examples, test not specified). Conditions: at low concentrations.
Data set [2] has as its system HSP70. Kind of data set: Time course of HSP70 expression by western blot in cortex and hippocampus after oral CNS-102. Set-up: HSP70 expression (western blot), treatment average: scale not given here. In kind it is in vivo. The procedure: The time course of protein expression, as measured by western blot for HSP70, was determined in triplicate for hippocampus, and cortex tissue samples taken from each of 5 animals per group at each of four time points (24, 48, 72, and 96 h) after treatment with either PBS or 12 mg/kg CNS-102, administered orally. The average expression for each treatment group is calculated at each time point for each tissue using PROC MIXED in SAS and are tabulated, along with the difference (delta) between treatment averages and a p-value comparing the difference to zero, below.

Data set [3] concerns HSP70. Kind of data set: Time course of HSP70 expression by ELISA in select tissues after oral CNS-102. In kind it is in vivo, Sprague-Dawley rats. Conditions: 12 mg/kg p.o. The procedure: CNS-102 at 12 mg/kg or PBS was administered orally to Sprague-Dawley rats and the time course of HSP70 protein expression in tissues, was measured by ELISA. HSP70 protein expression was determined for lung, testicle, spleen, liver, kidney, blood plasma, skin, peripheral blood monocytes, heart, eye, muscle, intestine, and stomach at each of three time points (8 h, 17 h, 24 h).
In general terms: ELISA stands for enzyme-linked immunosorbent assay.

In the case of `CC(=O)CC/C=C(\C)CC/C=C(\C)CC/C=C(\C)CCC=C(C)C` (single isomer, unassigned) [trans-isomer of GGA, 5E, 9E, 13E geranylgeranyl acetone], the “pharmacological activity and dose-dependent relationship” value in data set [1] was “pharmacologically active and shows a dose-dependent relationship”.
Regarding `CC(=O)CC/C=C(\C)CC/C=C(\C)CC/C=C(\C)CCC=C(C)C` [CNS-102], the “HSP70 expression (western blot), treatment average” value is −0.016 in data set [2] (cortex, 24 hours after 12 mg/kg oral); −0.45 in data set [2] (cortex, 48 hours after 12 mg/kg oral); 0.14 in data set [2] (cortex, 72 hours after 12 mg/kg oral); 0.04 in data set [2] (cortex, 96 hours after 12 mg/kg oral); −0.159 in data set [2] (hippocampus, 24 hours after 12 mg/kg oral); 0.02 in data set [2] (hippocampus, 48 hours after 12 mg/kg oral). Moreover, the “HSP70 expression (western blot), treatment average” value is on record as −0.06 in data set [2] (hippocampus, 72 hours after 12 mg/kg oral) and −0.32 in data set [2] (hippocampus, 96 hours after 12 mg/kg oral). The “HSP70 expression, delta CNS-102 vs PBS” value in data set [2] (cortex, 48 hours, 12 mg/kg oral, p-value 0.15) was 0.11; in data set [2] (cortex, 72 hours, 12 mg/kg oral, p-value 0.13), 0.13; in data set [2] (cortex, 96 hours, 12 mg/kg oral, p-value 0.09), 0.19; in data set [2] (hippocampus, 24 hours, 12 mg/kg oral, p-value 0.16) it was −0.088; in data set [2] (hippocampus, 48 hours, 12 mg/kg oral, p-value 0.14), 0.2; in data set [2] (hippocampus, 96 hours, 12 mg/kg oral, p-value 0.07), 0.17. Moreover, the “levels of HSP70 in the cortex after 24 h” value in data set [2] (cortex, time points after 24 h, 12 mg/kg oral) is on record as “No significant levels”. The “time of peak HSP70 expression in the hippocampus” value in data set [2] (hippocampus, 12 mg/kg oral) is greater than 48 h. Also, the “HSP70 Fold Induction vs. Vehicle Control” value is on record as 1.63 fold in data set [3] (Intestine, 8 h); 1.26 fold in data set [3] (Intestine, 17 h); 0.64 fold in data set [3] (Intestine, 24 h); 1.67 fold in data set [3] (PBMC, 8 h); 1.05 fold in data set [3] (PBMC, 17 h); 1.09 fold in data set [3] (PBMC, 24 h). The “HSP70 Fold Induction vs. Vehicle Control” value in data set [3] (Stomach, 8 h) was 1.07 fold; in data set [3] (Stomach, 17 h) it was 1.30 fold; in data set [3] (Stomach, 24 h), 0.96 fold; in data set [3] (heart, 17 h) it was 1.89 fold; in data set [3] (heart, 24 h) it was 0.60 fold; in data set [3] (kidney, 8 h), 1.11 fold. The “HSP70 Fold Induction vs. Vehicle Control” value in data set [3] (kidney, 17 h) was 1.08 fold; in data set [3] (kidney, 24 h), 0.92 fold; in data set [3] (liver, 8 h), 1.24 fold; in data set [3] (liver, 17 h), 1.00 fold; in data set [3] (liver, 24 h) it was 0.89 fold; in data set [3] (plasma, 8 h) it was 0.88 fold. The “HSP70 Fold Induction vs. Vehicle Control” value in data set [3] (plasma, 17 h) worked out at 1.09 fold; in data set [3] (plasma, 24 h) it was 1.05 fold; in data set [3] (spleen, 8 h), 0.64 fold; in data set [3] (spleen, 17 h), 1.09 fold; in data set [3] (spleen, 24 h), 1.04 fold; in data set [3] (testicle, 8 h), 1.10 fold. Besides, the “HSP70 Fold Induction vs. Vehicle Control” value in data set [3] (testicle, 17 h) was 1.03 fold; in data set [3] (testicle, 24 h), 0.94 fold.
As to `CC(=O)CC/C=C(/C)CC/C=C(\C)CC/C=C(\C)CCC=C(C)C` (single isomer, unassigned) [cis-isomer of GGA, 5Z, 9E, 13E geranylgeranyl acetone], in data set [1], the “pharmacological activity and dose-dependent relationship” value is “at best of minimal activity”.
